Assay [1] addresses PI3Kγ (p110γ) Recombinant Human Protein (Homo sapiens (Human), UniProt P48736). In words: PI3K-γ Scintillation Proximity Assay. The assay is classed as biochemical. Particulars: 20 μM PIP2, 2 μM ATP, 13 nM PI3Kγ, 120 min, room temperature. From the text: Example B. PI3K-γ Scintillation Proximity Assay Materials: [γ-^33P]ATP (10 mCi/mL) and Wheat Germ Agglutinin (WGA) YSi SPA Scintillation Beads was purchased from Perkin Elmer (Waltham, MA). Lipid kinase substrate, D-myo-Phosphatidylinositol 4,5-bisphosphate (PtdIns(4,5)P2)D (+)-sn-1,2-di-O-octanoylglyceryl, 3-O-phospho linked (PIP2), CAS 204858-53-7, was purchased from Echelon Biosciences (Salt Lake City, UT). PI3Kγ (p110γ) Recombinant Human Protein was purchased from Life technology (Grand Island, NY). ATP, MgCl2, DTT, EDTA, MOPS and CHAPS were purchased from Sigma Aldrich (St. Louis, MO). The kinase reaction was conducted in polystyrene 384-well Greiner Bio-one white plate from Thermo Fisher Scientific in a final volume of 25 μL. Inhibitors were first diluted serially in DMSO and added to the plate wells before the addition of other reaction components. The final concentration of DMSO in the assay was 2%. The PI3Kγ assay was carried out at room temperature in 20 mM MOPS, pH 6.7, 10 mM MgCl2, 5 mM DTT and CHAPS 0.03%. Reactions were initiated by the addition of ATP, the final reaction mixture consisted of 20 μM PIP2, 2 μM ATP, 0.5 μCi [γ-^33P] ATP, 13 nM PI3Kγ. Reactions were incubated for 120 min and terminated by the addition of 40 μL SPA beads suspended in quench buffer: 163 mM potassium phosphate pH 7.8, 20% glycerol, 25 mM EDTA. The final concentration of SPA beads is 1.0 mg/mL. After the plate sealing, plates were shaken overnight at room temperature and centrifuged at 1500 rpm for 10 min, the radioactivity of the product was determined by scintillation counting on Topcount (Perkin-Elmer). IC50 determination was performed by fitting the curve of percent of the solvent control activity versus the log of the inhibitor concentration using the GraphPad Prism 6.0 software.
(In general: In a scintillation proximity assay essentially only radioactivity close to the scintillant gives light.)

In assay [2] the target is PI3Kδ (p110δ/p85α) Recombinant Human Protein (Homo sapiens (Human), UniProt O00329). Kind of assay: PI3Kδ Scintillation Proximity Assay. The assay is classed as biochemical. Particulars: 20 μM PIP2, 2 μM ATP, 3.4 nM PI3Kδ, 120 min, room temperature. From the text:
Example C. PI3Kδ Scintillation Proximity Assay Materials: [γ-^33P]ATP (10 mCi/mL) and Wheat Germ Agglutinin (WGA) YSi SPA Scintillation Beads was purchased from Perkin Elmer (Waltham, MA). Lipid kinase substrate, D-myo-Phosphatidylinositol 4,5-bisphosphate (PtdIns(4,5)P2)D (+)-sn-1,2-di-O-octanoylglyceryl, 3-O-phospho linked (PIP2), CAS 204858-53-7, was purchased from Echelon Biosciences (Salt Lake City, UT). PI3Kδ (p110δ/p85α) Recombinant Human Protein was purchased from Eurofins (St Charles, MO). ATP, MgCl2, DTT, EDTA, MOPS and CHAPS were purchased from Sigma Aldrich (St. Louis, MO). The kinase reaction was conducted in polystyrene 384-well Greiner Bio-one white plate from Thermo Fisher Scientific in a final volume of 25 μL. Inhibitors were first diluted serially in DMSO and added to the plate wells before the addition of other reaction components. The final concentration of DMSO in the assay was 2%. The PI3Kδ assay was carried out at room temperature in 20 mM MOPS, pH 6.7, 10 mM MgCl2, 5 mM DTT and CHAPS 0.03%. Reactions were initiated by the addition of ATP, the final reaction mixture consisted of 20 μM PIP2, 2 μM ATP, […] [γ-^33P] ATP, 3.4 nM PI3Kδ. Reactions were incubated for 120 min and terminated by the addition of 40 μL SPA beads suspended in quench buffer: 163 mM potassium phosphate pH 7.8, 20% glycerol, 25 mM EDTA. The final concentration of SPA beads is 1.0 mg/mL. After the plate sealing, plates were shaken overnight at room temperature and centrifuged at 1500 rpm for 10 min, the radioactivity of the product was determined by scintillation counting on Topcount (PerkinElmer). IC50 determination was performed by fitting the curve of percent of the solvent control activity versus the log of the inhibitor concentration using the GraphPad Prism 6.0 software.

Assay [3] has as its system Phosphorylated Ribosomal Protein S6 (RPS6) in THP-1 cells. In words: THP-1 RPS6 ELISA Assay. The assay is classed as cell-based, Human. Conditions: Homo sapiens. As to the method:
Example A. THP-1 RPS6 ELISA Assay
To measure the Phosphorylated Ribosomal Protein S6 (RPS6) in cell lysates, THP-1 cells (Human Acute Monocytic Leukemia) are purchased from ATCC (Manassas, VA) and maintained in RPMI with 10% FBS (Gibco/Life Technologies, Carlsbad, CA). For the assay, THP-1 cells are serum starved overnight in RPMI, then plated in RPMI (2×10^5 cells/well in 90 μL) into 96-well flat-bottom tissue culture treated plates (Corning, Corning, NY), in the presence or absence of a concentration range of test compounds. Covered plates are incubated for 2 hours at 37° C., 5% CO2 then treated with or without 10 nM MCP-1(MYBioSource, San Diego, CA) for 15 minutes at 37° C., 5% CO2. Plates are centrifuged at 1600 RPM and supernatants are removed. Cells are lysed in Lysis Buffer (Cell Signaling, Danvers, MA) with Protease Inhibitor (Calbiochem/EMD, Germany), PMSF (Sigma, St Louis MO), HALTS (Thermo Fisher, Rockford, IL) for 30 min on wet ice. Cell lysates are frozen at −80° C. before testing. The lysates are tested in the Human/Mouse/Rat Phospho-RPS6 ELISA (R&D Systems, Inc. Minn, MN). The plate is measured using a microplate reader (SpectraMax M5—Molecular Devices, LLC Sunnyvale, CA) set to 450 nm with a wavelength correction of 540. IC50 determination is performed by fitting the curve of inhibitor percent inhibition versus the log of the inhibitor concentration using the GraphPad Prism 5.0 software.
A general note: In an ELISA, binding on a coated surface is turned into a signal by an enzyme label.

[4] abbreviates: THP-1 cells, serum starved, 2 hours compound, 10 nM MCP-1 for 15 minutes, Phospho-RPS6 ELISA, read-out: PI3Kγ_THP1_RPS6_ELISA IC50.

The record followed here is patent US11926616B2, “Aminopyrazine diol compounds as PI3K-γ inhibitors” (Incyte Corporation, priority 2018, dated 2024).

As a reminder, the IC50 is the midpoint of a concentration-inhibition curve.

SMILES strings stand for the structures. Where two headings read alike, the source gives them in different places.

PI3Kδ (p110δ/p85α) Recombinant Human Protein, sequence (O00329 whole entry): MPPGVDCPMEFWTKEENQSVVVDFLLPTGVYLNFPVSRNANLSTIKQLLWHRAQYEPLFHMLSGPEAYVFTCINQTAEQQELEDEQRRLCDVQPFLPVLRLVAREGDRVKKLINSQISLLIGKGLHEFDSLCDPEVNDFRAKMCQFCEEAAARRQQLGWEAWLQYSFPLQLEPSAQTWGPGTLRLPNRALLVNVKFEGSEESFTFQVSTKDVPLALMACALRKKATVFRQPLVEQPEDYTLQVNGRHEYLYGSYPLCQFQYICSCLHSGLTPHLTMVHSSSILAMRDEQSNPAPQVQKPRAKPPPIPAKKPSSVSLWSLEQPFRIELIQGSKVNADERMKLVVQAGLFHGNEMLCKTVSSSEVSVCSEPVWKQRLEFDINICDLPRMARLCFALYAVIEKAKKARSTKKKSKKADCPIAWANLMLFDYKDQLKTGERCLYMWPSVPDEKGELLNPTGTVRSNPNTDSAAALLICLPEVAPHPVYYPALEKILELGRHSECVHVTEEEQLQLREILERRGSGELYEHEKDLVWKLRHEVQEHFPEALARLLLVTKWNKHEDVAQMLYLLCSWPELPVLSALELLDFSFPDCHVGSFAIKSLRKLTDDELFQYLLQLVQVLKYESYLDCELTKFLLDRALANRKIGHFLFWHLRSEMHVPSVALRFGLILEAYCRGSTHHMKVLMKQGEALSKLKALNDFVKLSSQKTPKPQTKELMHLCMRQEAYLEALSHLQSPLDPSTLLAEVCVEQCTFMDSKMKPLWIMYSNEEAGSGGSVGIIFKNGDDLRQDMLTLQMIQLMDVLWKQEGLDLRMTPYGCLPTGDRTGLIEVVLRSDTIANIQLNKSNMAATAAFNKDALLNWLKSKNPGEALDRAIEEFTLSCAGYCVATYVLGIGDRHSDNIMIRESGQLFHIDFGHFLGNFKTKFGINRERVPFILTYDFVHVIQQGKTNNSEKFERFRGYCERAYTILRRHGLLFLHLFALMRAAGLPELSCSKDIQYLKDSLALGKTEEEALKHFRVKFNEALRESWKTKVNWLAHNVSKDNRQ
PI3Kδ (p110δ/p85α) Recombinant Human Protein, sequence (P27986 whole entry partner): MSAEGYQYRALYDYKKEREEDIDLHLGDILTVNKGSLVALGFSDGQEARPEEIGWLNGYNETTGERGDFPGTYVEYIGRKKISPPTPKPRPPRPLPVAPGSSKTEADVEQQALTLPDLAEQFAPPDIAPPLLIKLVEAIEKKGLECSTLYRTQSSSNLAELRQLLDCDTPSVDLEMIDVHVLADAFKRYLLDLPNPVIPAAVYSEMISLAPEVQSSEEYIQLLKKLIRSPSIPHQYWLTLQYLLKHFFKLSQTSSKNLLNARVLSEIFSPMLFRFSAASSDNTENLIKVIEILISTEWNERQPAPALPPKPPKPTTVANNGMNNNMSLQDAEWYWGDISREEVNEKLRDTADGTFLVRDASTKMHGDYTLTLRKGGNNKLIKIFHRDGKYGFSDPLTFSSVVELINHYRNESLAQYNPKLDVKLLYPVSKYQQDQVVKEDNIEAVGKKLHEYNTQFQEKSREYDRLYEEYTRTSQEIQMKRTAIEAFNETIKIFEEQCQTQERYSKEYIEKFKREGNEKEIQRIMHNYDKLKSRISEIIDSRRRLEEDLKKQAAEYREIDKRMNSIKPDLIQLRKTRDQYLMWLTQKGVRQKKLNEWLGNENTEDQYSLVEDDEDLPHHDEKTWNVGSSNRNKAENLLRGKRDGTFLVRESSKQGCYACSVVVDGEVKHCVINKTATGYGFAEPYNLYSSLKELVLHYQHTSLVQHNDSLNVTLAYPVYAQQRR
PI3Kγ (p110γ) Recombinant Human Protein, sequence (P48736 whole entry): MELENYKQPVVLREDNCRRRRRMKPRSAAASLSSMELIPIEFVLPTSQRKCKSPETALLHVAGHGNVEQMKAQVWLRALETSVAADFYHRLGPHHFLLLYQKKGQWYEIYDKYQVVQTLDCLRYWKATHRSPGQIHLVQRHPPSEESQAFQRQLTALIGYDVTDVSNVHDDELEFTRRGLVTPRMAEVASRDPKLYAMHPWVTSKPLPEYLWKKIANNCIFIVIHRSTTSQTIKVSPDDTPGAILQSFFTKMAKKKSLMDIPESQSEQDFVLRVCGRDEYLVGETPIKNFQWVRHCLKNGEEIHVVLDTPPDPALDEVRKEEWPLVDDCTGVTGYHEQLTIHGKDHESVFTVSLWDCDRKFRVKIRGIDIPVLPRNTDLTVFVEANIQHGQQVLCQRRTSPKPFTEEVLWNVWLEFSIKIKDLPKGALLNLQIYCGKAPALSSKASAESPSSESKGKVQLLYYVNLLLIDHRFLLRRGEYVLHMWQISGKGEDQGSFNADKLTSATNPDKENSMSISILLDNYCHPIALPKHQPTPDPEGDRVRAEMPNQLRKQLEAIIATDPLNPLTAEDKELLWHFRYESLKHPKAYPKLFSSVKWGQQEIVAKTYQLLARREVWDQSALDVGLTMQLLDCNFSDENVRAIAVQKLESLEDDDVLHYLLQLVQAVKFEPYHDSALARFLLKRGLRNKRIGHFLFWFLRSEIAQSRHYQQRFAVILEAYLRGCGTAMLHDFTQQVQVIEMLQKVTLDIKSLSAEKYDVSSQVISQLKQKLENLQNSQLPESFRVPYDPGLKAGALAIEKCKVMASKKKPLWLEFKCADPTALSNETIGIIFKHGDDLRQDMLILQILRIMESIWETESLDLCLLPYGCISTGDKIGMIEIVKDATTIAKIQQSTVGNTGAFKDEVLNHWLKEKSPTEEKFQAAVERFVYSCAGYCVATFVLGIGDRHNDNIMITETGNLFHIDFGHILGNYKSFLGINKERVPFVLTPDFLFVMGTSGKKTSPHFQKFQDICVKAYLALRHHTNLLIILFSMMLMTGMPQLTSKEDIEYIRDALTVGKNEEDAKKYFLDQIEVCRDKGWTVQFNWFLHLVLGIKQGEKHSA

For the compound `[2H]C([2H])([2H])n1nccc1-c1nc(-c2cc(C(O)(CO)C(F)(F)F)ccc2C)cnc1N` (single isomer, unassigned) [Example 1b, 2-(3-(5-Amino-6-(1-(methyl-d3)-1H-pyrazol-5-yl)pyrazin-2-yl)-4-methylphenyl)-3,3,3-trifluoropropane-1,2-diol], the IC50 in assay [1] and in assay [2] was at most 0.5 µM throughout.
Consider `Cc1ccc(C(O)(CO)C(F)(F)F)cc1-c1cnc(N)c(-c2cnn(C)c2)n1` (single isomer, unassigned) [Example 2, 2-(3-(5-Amino-6-(1-methyl-1H-pyrazol-4-yl)pyrazin-2-yl)-4-methylphenyl)-3,3,3-trifluoropropane-1,2-diol], for which, in assay [3] (setting [4]), the IC50 is below 100 nM.
Same read-out and setting: as for `Cc1ccc(C(O)(CO)C(F)(F)F)cc1-c1cnc(N)c(-c2cn[nH]c2)n1` (single isomer, unassigned) [Example 3, 2-(3-(5-Amino-6-(1H-pyrazol-4-yl)pyrazin-2-yl)-4-methylphenyl)-3,3,3-trifluoropropane-1,2-diol], the figure is below 100 nM; as for `Cc1cc(-c2nc(-c3cc(C(O)(CO)C(F)(F)F)ccc3C)cnc2N)on1` (single isomer, unassigned) [Example 4, 2-(3-(5-Amino-6-(3-methylisoxazol-5-yl)pyrazin-2-yl)-4-methylphenyl)-3,3,3-trifluoropropane-1,2-diol], below 100 nM; as for `Cc1ccc(C(O)(CO)C(F)(F)F)cc1-c1cnc(N)c(-c2cnsc2)n1` (single isomer, unassigned) [Example 5, 2-(3-(5-Amino-6-(isothiazol-4-yl)pyrazin-2-yl)-4-methylphenyl)-3,3,3-trifluoropropane-1,2-diol], below 100 nM.
The same measure, in the same setting: as for `Cc1ccc(C(O)(CO)C(F)(F)F)cc1-c1cnc(N)c(-c2ccns2)n1` (single isomer, unassigned) [Example 6, 2-(3-(5-Amino-6-(isothiazol-5-yl)pyrazin-2-yl)-4-methylphenyl)-3,3,3-trifluoropropane-1,2-diol], the figure is below 100 nM.
For `Cc1cc(-c2nc(-c3cc(C(O)(CO)C(F)(F)F)ccc3C)cnc2N)sn1` (single isomer, unassigned) [Example 7, 2-(3-(5-amino-6-(3-methylisothiazol-5-yl)pyrazin-2-yl)-4-methylphenyl)-3,3,3-trifluoropropane-1,2-diol], in assay [3] (setting [4]), the IC50 was below 100 nM.
Still for that read-out and setting: for `Cc1ncc(-c2nc(-c3cc(C(O)(CO)C(F)(F)F)ccc3C)cnc2N)s1` (single isomer, unassigned) [Example 10, 2-(3-(5-Amino-6-(2-methylthiazol-5-yl)pyrazin-2-yl)-4-methvlphenyl)-3,3,3-trifluoropropane-1,2-diol] the value was below 100 nM; for `Cc1ccc(C(O)(CO)C(F)(F)F)cc1-c1cnc(N)c(-c2cnco2)n1` (single isomer, unassigned) [Example 11, 2-(3-(5-Amino-6-(oxazol-5-yl)pyrazin-2-yl)-4-methylphenyl)-3,3,3-trifluoropropane-1,2-diol], below 100 nM.
For the compound `Cc1ccc(C(O)(CO)C(F)(F)F)cc1-c1cnc(N)c(-n2ccnn2)n1` (single isomer, unassigned) [Example 13, 2-(3-(5-Amino-6-(1H-1,2,3-triazol-1-yl)pyrazin-2-yl)-4-methylphenyl)-3,3,3-trifluoropropane-1,2-diol], the IC50 in assay [3] (setting [4]) was below 100 nM.
Same read-out and setting: for `Cc1ccc(C(O)(CO)C(F)(F)F)cc1-c1cnc(N)c(-n2cncn2)n1` (single isomer, unassigned) [Example 15, 2-(3-(5-Amino-6-(1H-1,2,4-triazol-1-yl)pyrazin-2-yl)-4-methylphenyl)-3,3,3-trifluoropropane-1,2-diol] the value was below 500 nM.
For `Cc1ccc(C(O)(CO)C(F)(F)F)cc1-c1cnc(N)c(C(F)(F)F)n1` (single isomer, unassigned) [Example 25, 2-(3-(5-Amino-6-(trifluoromethyl)pyrazin-2-yl)-4-methylphenyl)-3,3,3-trifluoropropane-1,2-diol], the IC50 in assay [1] is at most 0.1 µM; in assay [2], at most 0.5 µM.
On the same counts, the results for `Cc1ccc(C(O)(CO)C(F)(F)F)cc1-c1cnc(N)c(C(=O)NC23CC(CO)(C2)C3)n1` (single isomer, unassigned) [Example 32] are at most 0.1 µM and at most 0.1 µM.
For the compound `[2H]C([2H])([2H])c1ccc(C(O)(CO)C(F)(F)F)cc1-c1cnc(N)c(C(=O)NC23CC(CO)(C2)C3)n1` (single isomer, unassigned) [Example 32], the IC50 in assay [3] (setting [4]) is below 100 nM.
Consider `Cc1ccc(C(O)(CO)C(F)(F)F)cc1-c1cnc(N)c(C(=O)N[C@@H](C)CO)n1` (single isomer, unassigned) [Example 33], for which the IC50 in assay [1] and in assay [2] was at most 0.1 µM throughout.
For `[2H]C([2H])([2H])c1ccc(C(O)(CO)C(F)(F)F)cc1-c1cnc(N)c(C(=O)N[C@@H](C)CO)n1` (single isomer, unassigned) [Example 33], the IC50 in assay [3] (setting [4]) is below 100 nM.
`Cc1ccc(C(O)(CO)C(F)(F)F)cc1-c1cnc(N)c(C(=O)NCC(C)(C)C#N)n1` (single isomer, unassigned) [Example 34]: the IC50 in assay [1] and in assay [2] was at most 0.1 µM in each case.
Take `[2H]C([2H])([2H])c1ccc(C(O)(CO)C(F)(F)F)cc1-c1cnc(N)c(C(=O)NCC(C)(C)C#N)n1` (single isomer, unassigned) [Example 34]: the IC50 in assay [3] (setting [4]) is below 100 nM.
Still for that read-out and setting: for `[2H]C([2H])([2H])c1ccc(C(O)(CO)C(F)(F)F)cc1-c1cnc(N)c(C(=O)NC23CCC(O)(CC2)C3)n1` (single isomer, unassigned) [Example 35] the value was below 100 nM.
Consider `[2H]C([2H])([2H])c1ccc(C(O)(CO)C(F)(F)F)cc1-c1cnc(N)c(C(=O)N[C@H](C)CO)n1` (single isomer, unassigned) [Example 36], for which the IC50 in assay [3] (setting [4]) is below 500 nM.
Regarding `Cc1ccc([C@](O)(CO)C(F)F)cc1-c1cnc(N)c(C(=O)NC(C)C)n1` (single isomer, unassigned) [Example 46], the IC50 in assay [3] (THP-1, read-out: PI3Kγ_THP1_RPS6_ELISA IC50 (nM)) was below 100 nM.
